In patent publication US20250034413A1, “METHODS FOR DECELLULARIZING ANIMAL TISSUE AND BIOINKS DERIVED THEREFROM” (VIRGINIA COMMONWEALTH UNIVERSITY, priority 2021, published 2025):
“Also recorded” adds a separate entry of the source.

What was measured:
[1] = system: AGEs in decellularized muscle matrix (DMM); assay: Reduction of AGEs in decellularized mouse gastrocnemius muscle matrix (DMM); assay type: biochemical; conditions: C57BL6 mouse gastrocnemius, 2-month vs 20-month; 10 mM ALT-711, 37° C., 5 days; FIG. 3
Experimental: • i. Gastrocnemius is thawed in a 37° C. water bath and then butterflied. • ii. The muscles are washed in a T-25 flask (standing vertical) with 20 ml of deionized water per well 3 times for 10 minutes each. • iii. Tissue is then treated with 20 ml of 0.25% Trypsin for 12-16 hours in a T-25 flask (standing vertical) on an orbital shaker plate. Use tape to secure the flask in a vertical position. • iv. Trypsin treatment is followed by 3 20 ml 15 minute deionized water washes per well. • v. Tissue is treated with 20 mL of 0.1% TRITON X-100™ in a T-25 flask for 8 hours at 4° C. The volume is replaced with fresh TRITON X-100™ and the tissue is treated for another 16 hours. Treatment is followed by 3 20 ml 15 minute deionized water washes per well. • vi. Samples are placed in 20 mL of 60 mM sodium deoxycholate with 0.6 mM SB-16 for 8 hours in a T-25 flask at 4° C. The volume is replaced with fresh sodium deoxycholate and SB-16 and the tissue is treated for another 16 hours. • vii. Samples are washed as described in deionized water and placed in 20 mL of 70 mM CHAPS for 8 hours in a T-25 mL flask at 4° C. The volume is replaced with fresh CHAPS and the tissue is treated for another 16 hours. • viii. […]

[2] = system: AGEs in human DMM; assay: Reduction of AGEs in human decellularized muscle matrix (DMM) from MTF Biologics; assay type: biochemical; conditions: older human samples, 10 mM ALT-711, 37° C., 5 days
Experimental: Exemplary method for reducing AGEs in decellularized muscle xi. 10 mM ALT-711 is added to each well, and then placed in the 37° C. incubator for 5 days.
xii. After 5 days, the samples are washed 3 times with diH20 each, and then the samples are frozen at −80° C.
In addition, human decellularized muscle from MTF Biologics was also tested for feasibility to reduce AGEs in older human samples using the same protocol as described above.

Cc1sc[n+](CC(=O)c2ccccc2)c1C.[Cl-] [ALT-711, alargebrium chloride 711]
level of AGEs in decellularized muscle matrix (DMM) [1]: reduced levels of AGEs; also recorded: reduces the higher level of AGEs seen in the 20-month decellularized muscle matrix (DMM) to young adult levels
AGEs normalized to protein ([2]; FIG. 4A): reduced AGEs
AGEs normalized to hydroxyproline ([2]; FIG. 4B): reduced AGEs
